For two substances, Kd results are on record in publication PMC3609652 (The Biochemical journal, 2013).

As a reminder, the Kd is a measure of binding affinity in units of concentration.

Assay [1] deals with IgE^DNP (monoclonal anti-DNP IgE). Nature of the assay: tryptophan fluorescence quenching titration with monovalent hapten. The assay is classed as binding.
Assay [2] deals with IgE^dansyl (monoclonal anti-dansyl IgE, clone 27–74). The assay is described as above. It counts as binding.

As for DNP, the dissociation constant (Kd) in assay [1] is 22 ± 2 nM.

On to dansyl, for which the Kd in assay [2] was 54 ± 4 nM.
